Measurements from the supplement of paper PMC10627819.

Columns and labels:
Test in all cases: fitness (endpoint OD595 vs no drug) (fraction); higher = more growth
S. aureus DSM 20231 = system: S. aureus DSM 20231
Summary of the method: (§1)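 Plates with 384 wells were inoculated at OD595 0.01 using 30 µl of TSB, LB Lennox or CY, or 55 µl for S. pneumoniae. Incubation was at 37 °C, with OD595 measured every 30 min for 14 h. Fitness is the stationary-phase transition optical density over the robust mean of no-drug control wells, after first-reading background subtraction; it is capped at 1.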

B. subtilis 168 = system: B. subtilis 168
Summary of the method: as §1

S. aureus Newman = system: S. aureus Newman
Summary of the method: as §1

S. pneumoniae D39V = system: S. pneumoniae D39V
Summary of the method: as §1

CC(=O)Oc1ccccc1C(=O)O [Acetylsalicylic acid] + O=C(N[C@H](CO)[C@H](O)c1ccc([N+](=O)[O-])cc1)C(Cl)Cl [Chloramphenicol]
fitness, S. aureus DSM 20231
Settings | first compound 250 µg/mL | first compound 500 µg/mL | first compound 1000 µg/mL
partner 0.75 µg/mL | 0.688 | – | 0.307
partner 1.5 µg/mL | 0.498 | – | 0.225
partner 3 µg/mL | 0.136 | 0.098 | 0.0799

O=C(O)c1cn(C2CC2)c2cc(N3CCNCC3)c(F)cc2c1=O [Ciprofloxacin] + CO/N=C(\C(=O)N[C@@H]1C(=O)N2C(C(=O)O)=C(COC(C)=O)CS[C@H]12)c1csc(N)n1 [Cefotaxime]
fitness, one replicate
Settings | partner 0.00775 µg/mL | partner 0.0155 µg/mL | partner 0.031 µg/mL | partner 0.039 µg/mL | partner 0.0625 µg/mL | partner 0.125 µg/mL | partner 0.25 µg/mL | partner 0.312 µg/mL
B. subtilis 168, first compound 0.0098 µg/mL | 0.764 | 0.594 | 0.347 | – | 0.475 | 0.333 | 0.263 | –
B. subtilis 168, first compound 0.0195 µg/mL | 0.546 | 0.205 | 0.063 | – | 0.231 | 0.129 | 0.0436 | –
B. subtilis 168, first compound 0.039 µg/mL | 0.0504 | 0.0283 | 0.045 | – | 0.0338 | 0.0283 | 0.0507 | –
S. aureus Newman, first compound 0.0375 µg/mL | – | – | – | 0.633 | – | – | – | 0.217
S. aureus Newman, first compound 0.075 µg/mL | – | – | – | 0.691 | – | – | – | 0.0389
S. aureus Newman, first compound 0.15 µg/mL | – | – | – | 0.0625 | – | – | – | 0.0381

Settings | fitness
B. subtilis 168, first compound 0.0098 µg/mL, partner 0.5 µg/mL | 0.141
B. subtilis 168, first compound 0.0098 µg/mL, partner 1 µg/mL | 0.0495
B. subtilis 168, first compound 0.0098 µg/mL, partner 2 µg/mL | 0.0625
B. subtilis 168, first compound 0.0195 µg/mL, partner 0.5 µg/mL | 0.0302
B. subtilis 168, first compound 0.0195 µg/mL, partner 1 µg/mL | 0.0272
B. subtilis 168, first compound 0.0195 µg/mL, partner 2 µg/mL | 0.0392
B. subtilis 168, first compound 0.039 µg/mL, partner 0.5 µg/mL | 0.0615
B. subtilis 168, first compound 0.039 µg/mL, partner 1 µg/mL | 0.0416
B. subtilis 168, first compound 0.039 µg/mL, partner 2 µg/mL | 0.0569
S. aureus Newman, first compound 0.0375 µg/mL, partner 0.078 µg/mL | 0.578
S. aureus Newman, first compound 0.0375 µg/mL, partner 0.156 µg/mL | 0.489
S. aureus Newman, first compound 0.0375 µg/mL, partner 0.625 µg/mL | 0.0622
S. aureus Newman, first compound 0.0375 µg/mL, partner 1.25 µg/mL | 0.0267
S. aureus Newman, first compound 0.0375 µg/mL, partner 2.5 µg/mL | 0.0312
S. aureus Newman, first compound 0.075 µg/mL, partner 0.078 µg/mL | 0.518
S. aureus Newman, first compound 0.075 µg/mL, partner 0.625 µg/mL | 0.0809
S. aureus Newman, first compound 0.075 µg/mL, partner 1.25 µg/mL | 0.0731
S. aureus Newman, first compound 0.075 µg/mL, partner 2.5 µg/mL | 0.0893
S. aureus Newman, first compound 0.15 µg/mL, partner 0.078 µg/mL | 0.0493
S. aureus Newman, first compound 0.15 µg/mL, partner 0.156 µg/mL | 0.0219
S. aureus Newman, first compound 0.15 µg/mL, partner 0.625 µg/mL | 0.0244
S. aureus Newman, first compound 0.15 µg/mL, partner 1.25 µg/mL | 0.0309
S. aureus Newman, first compound 0.15 µg/mL, partner 2.5 µg/mL | 0.0543
S. pneumoniae D39V, first compound 0.125 µg/mL, partner 0.0018 µg/mL | 0.992
S. pneumoniae D39V, first compound 0.125 µg/mL, partner 0.0035 µg/mL | 0.95
S. pneumoniae D39V, first compound 0.25 µg/mL, partner 0.0018 µg/mL | 0.919
S. pneumoniae D39V, first compound 0.25 µg/mL, partner 0.0035 µg/mL | 0.962
S. pneumoniae D39V, first compound 0.25 µg/mL, partner 0.007 µg/mL | 0.873
S. pneumoniae D39V, first compound 0.5 µg/mL, partner 0.0018 µg/mL | 0.809
S. pneumoniae D39V, first compound 0.5 µg/mL, partner 0.0035 µg/mL | 0.803

CC(=O)Oc1ccccc1C(=O)O [Acetylsalicylic acid] + CCCCCCCCCC(=O)N[C@@H]1[C@H]([C@@H]([C@H](O[C@H]1OC2=C3C=C4C=C2OC5=C(C=C(C=C5)[C@H]([C@H]6C(=O)N[C@@H](C7=C(C(=CC(=C7)O)OC8[C@H]([C@H]([C@@H]([C@H](O8)CO)O)O)O)C9=C(C=CC(=C9)[C@H](C(=O)N6)NC(=O)[C@@H]4NC(=O)[C@@H]1C2=CC(=CC(=C2)OC2=C(C=CC(=C2)[C@H](C(=O)N[C@H](CC2=CC(=C(O3)C=C2)Cl)C(=O)N1)N)O)O)O)C(=O)O)O[C@H]1[C@@H]([C@H]([C@@H]([C@H](O1)CO)O)O)NC(=O)C)Cl)CO)O)O [Teicoplanin]
fitness, S. aureus DSM 20231, main component drawn
Settings | partner 0.1562 µg/mL | partner 0.3125 µg/mL | partner 0.625 µg/mL
first compound 250 µg/mL | 0.957 | 0.98 | 0.979
first compound 500 µg/mL | 0.887 | 0.894 | 0.871
